Values joined by “and” are separate entries in the source; they are usually repeats but may differ in a detail not shown here. Identical values can stand only once. Inconclusive results and toxic doses are left out. No stated cut-off is given here; in the data, active means T/C of 150% or more; inactive means T/C below 125%. Square brackets hold non-standard residues; d marks the D form. Peptide text beside a SMILES is read from it. * marks the point of attachment. ξ: configuration not given here. ξF = NC(Cc1ccccc1)C(=O)O; Cbz = O=C(OCc1ccccc1)*; CH2Cl = ClC*
System: L1210 leukemia ip in BDF1 mice, survival T/C
Experiment: NCI In Vivo Anticancer Drug Screen. Data for tumor model L1210 Leukemia (intraperitoneal) in B6D2F1 (BDF1) mice
Settings: endpoint: mean survival time, higher = longer survival
Outline: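 Value reflects the ratio of survival in compound-treated mice to survival in vehicle-treated controls, with both groups carrying the same transplanted tumor.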

[1] = dose: 25.0 mg/kg/injection, schedule: Q04DX003 (ip), vehicle: Klucel (hydroxypropylcellulose) (HPC)
[2] = dose: 100.0 mg/kg/injection, schedule: Q04DX003 (ip), vehicle: Klucel (hydroxypropylcellulose) (HPC)
[3] = dose: 100.0 mg/kg/injection, schedule: Q01DX009 (ip), vehicle: saline with Tween-80
[4] = dose: 200.0 mg/kg/injection, schedule: Q01DX009 (ip), vehicle: saline with Tween-80
[5] = dose: 400.0 mg/kg/injection, schedule: Q01DX009 (ip), vehicle: saline with Tween-80
[6] = dose: 100.0 mg/kg/injection, schedule: Q01DX001 (ip), vehicle: saline
[7] = dose: 200.0 mg/kg/injection, schedule: Q01DX001 (ip), vehicle: saline
[8] = dose: 400.0 mg/kg/injection, schedule: Q01DX001 (ip), vehicle: saline
[9] = dose: 400.0 mg/kg/injection, schedule: Q04DX002 (ip), vehicle: saline with Tween-80
[10] = dose: 200.0 mg/kg/injection, schedule: Q04DX003 (ip), vehicle: Klucel (hydroxypropylcellulose) (HPC)
[11] = dose: 100.0 mg/kg/injection, schedule: Q04DX003 (ip), vehicle: saline with Tween-80
[12] = dose: 200.0 mg/kg/injection, schedule: Q04DX003 (ip), vehicle: saline with Tween-80
[13] = dose: 400.0 mg/kg/injection, schedule: Q04DX003 (ip), vehicle: saline with Tween-80

Measured: T/C

O=C(CNC(=O)OCc1ccccc1)NCC(=O)NC(Cc1ccccc1)C(=O)CCl (stereo not drawn) (Cbz-Gly-Gly-[ξF]-CH2Cl)
inactive: dose: 12.0 mg/kg/injection, schedule: Q01DX001 (ip), vehicle: Klucel (hydroxypropylcellulose) (HPC) 106 % of control | dose: 25.0 mg/kg/injection, schedule: Q01DX001 (ip), vehicle: Klucel (hydroxypropylcellulose) (HPC) 97 % of control | [1] 98 % of control | dose: 50.0 mg/kg/injection, schedule: Q01DX001 (ip), vehicle: Klucel (hydroxypropylcellulose) (HPC) 108 % of control | dose: 50.0 mg/kg/injection, schedule: Q04DX003 (ip), vehicle: Klucel (hydroxypropylcellulose) (HPC) 98 % of control | [2] 104 % of control

Cc1ccc(CCNc2ncnc(Cl)c2N)cc1
inactive: dose: 50.0 mg/kg/injection, schedule: Q01DX001 (ip), vehicle: other 88 % of control | dose: 100.0 mg/kg/injection, schedule: Q01DX001 (ip), vehicle: other 92 % of control

CCN1CC1
inactive: dose: 6.25 mg/kg/injection, schedule: Q01DX009 (ip), vehicle: Klucel (hydroxypropylcellulose) (HPC) 98 % of control | dose: 6.25 mg/kg/injection, schedule: Q04DX003 (ip), vehicle: Klucel (hydroxypropylcellulose) (HPC) 96 % of control | dose: 12.5 mg/kg/injection, schedule: Q01DX009 (ip), vehicle: Klucel (hydroxypropylcellulose) (HPC) 107 % of control | dose: 12.5 mg/kg/injection, schedule: Q04DX003 (ip), vehicle: Klucel (hydroxypropylcellulose) (HPC) 90 % of control | [1] 109 % of control

COC1OC2COc3ccccc3OC2C(NC(N)=O)C1O (stereo not given)
inactive: [3] 97 % of control | [4] 100 % of control | [5] 91 % of control

Oc1ccc2ccccc2c1/C=N/Nc1ccc2ccccc2n1
inactive: dose: 25.0 mg/kg/injection, schedule: Q01DX001 (ip), vehicle: saline with Tween-80 97 % of control | dose: 50.0 mg/kg/injection, schedule: Q01DX001 (ip), vehicle: saline with Tween-80 101 % of control | dose: 100.0 mg/kg/injection, schedule: Q01DX001 (ip), vehicle: saline with Tween-80 98 % of control

CCOc1ccccc1/C=N/N1CCN(/N=C/c2ccccc2OCC)CC1
inactive: [6] 100 % of control | [7] 90 % of control | [8] 90 % of control

CCOc1ccc(OC/C=C(\C)CCC=C(C)C)cc1
inactive: [3] 103 % of control | dose: 100.0 mg/kg/injection, schedule: Q04DX002 (ip), vehicle: saline with Tween-80 101 % of control | [4] 92 % of control | dose: 200.0 mg/kg/injection, schedule: Q04DX002 (ip), vehicle: saline with Tween-80 94 % of control | [9] 94 % of control

CCCCNC1=C(NC(=O)C(Cl)Cl)C(=O)c2ccccc2C1=O
inactive: dose: 2.5 mg/kg/injection, schedule: Q01DX009 (ip), vehicle: saline with Tween-80 103 % of control | dose: 5.0 mg/kg/injection, schedule: Q01DX009 (ip), vehicle: saline with Tween-80 101 % of control | dose: 5.0 mg/kg/injection, schedule: Q04DX003 (ip), vehicle: saline with Tween-80 100 % of control | dose: 10.0 mg/kg/injection, schedule: Q01DX009 (ip), vehicle: saline with Tween-80 98 % of control | dose: 10.0 mg/kg/injection, schedule: Q04DX003 (ip), vehicle: saline with Tween-80 97 % of control

O=C1NC(=S)S/C1=C\c1ccc([N+](=O)[O-])s1
inactive: dose: 100.0 mg/kg/injection, schedule: Q04DX002 (ip), vehicle: Klucel (hydroxypropylcellulose) (HPC) 90 % of control | dose: 200.0 mg/kg/injection, schedule: Q04DX002 (ip), vehicle: Klucel (hydroxypropylcellulose) (HPC) 93 % of control

c1ccc(CNNCc2ccccc2)cc1
inactive: dose: 75.0 mg/kg/injection, schedule: Q01DX009 (ip), vehicle: Klucel (hydroxypropylcellulose) (HPC) 102 % of control | [2] 102 % of control | dose: 150.0 mg/kg/injection, schedule: Q01DX009 (ip), vehicle: Klucel (hydroxypropylcellulose) (HPC) 109 % of control | [10] 94 % of control

CC(=O)OCC1OC(n2cnc3c(=O)[nH]c(N)nc32)C(OC(C)=O)C1OC(C)=O (stereo not given)
inactive: dose: 100.0 mg/kg/injection, schedule: Q01DX005 (ip), vehicle: saline 91 % of control | dose: 200.0 mg/kg/injection, schedule: Q01DX005 (ip), vehicle: saline 102 % of control and 109 % of control

[O-]/[N+](=C\c1cccc(Cl)c1)c1ccccc1
inactive: dose: 50.0 mg/kg/injection, schedule: Q01DX001 (ip), vehicle: saline 102 % of control | [6] 100 % of control | [2] 107 % of control | [7] 100 % of control | [10] 100 % of control | [8] 112 % of control

Cc1ccc(C(=O)/C=C\c2ccccc2)cc1
inactive: [3] 110 % of control | [11] 103 % of control | [4] 97 % of control | [12] 98 % of control | [5] 97 % of control | [13] 92 % of control

C=CCN(CC=C)c1nc(OC)nc(OC)n1
inactive: dose: 25.0 mg/kg/injection, schedule: Q01DX009 (ip), vehicle: saline with Tween-80 92 % of control | dose: 25.6 mg/kg/injection, schedule: Q04DX002 (ip), vehicle: saline with Tween-80 97 % of control | dose: 50.0 mg/kg/injection, schedule: Q01DX009 (ip), vehicle: saline with Tween-80 94 % of control | dose: 50.0 mg/kg/injection, schedule: Q04DX003 (ip), vehicle: saline with Tween-80 95 % of control | dose: 64.0 mg/kg/injection, schedule: Q04DX002 (ip), vehicle: saline with Tween-80 101 % of control | [3] 94 % of control | [11] 95 % of control and 103 % of control | dose: 160.0 mg/kg/injection, schedule: Q04DX002 (ip), vehicle: saline with Tween-80 101 % of control | [12] 92 % of control | [9] 101 % of control

COc1ccc(CCNC(=O)Cc2cc(OCc3ccccc3)c(OC)cc2[N+](=O)[O-])cc1OC
inactive: dose: 100.0 mg/kg/injection, schedule: Q04DX003 (ip), vehicle: water 90 % of control | dose: 200.0 mg/kg/injection, schedule: Q01DX001 (ip), vehicle: water 91 % of control | dose: 200.0 mg/kg/injection, schedule: Q04DX003 (ip), vehicle: water 91 % of control | dose: 400.0 mg/kg/injection, schedule: Q01DX001 (ip), vehicle: water 96 % of control | dose: 400.0 mg/kg/injection, schedule: Q04DX003 (ip), vehicle: water 91 % of control

CCOC(=O)/C(C#N)=C/C(C)c1ccccc1 (stereo not given)
inactive: dose: 100.0 mg/kg/injection, schedule: Q01DX009 (ip), vehicle: saline 108 % of control | dose: 200.0 mg/kg/injection, schedule: Q01DX009 (ip), vehicle: saline 104 % of control | dose: 400.0 mg/kg/injection, schedule: Q01DX009 (ip), vehicle: saline 95 % of control

CC(C)(C)C1CCC(C(=O)O)CC1 (stereo not given)
inactive: dose: 50.0 mg/kg/injection, schedule: Q01DX009 (ip), vehicle: gum acacia 102 % of control | dose: 100.0 mg/kg/injection, schedule: Q01DX009 (ip), vehicle: gum acacia 103 % of control | [3] 95 % of control and 97 % of control | dose: 100.0 mg/kg/injection, schedule: Q04DX002 (ip), vehicle: gum acacia 100 % of control | dose: 100.0 mg/kg/injection, schedule: Q04DX003 (ip), vehicle: gum acacia 106 % of control | [11] 102 % of control and 89 % of control | dose: 200.0 mg/kg/injection, schedule: Q01DX009 (ip), vehicle: gum acacia 105 % of control | [4] 94 % of control and 97 % of control | dose: 200.0 mg/kg/injection, schedule: Q04DX002 (ip), vehicle: gum acacia 110 % of control | dose: 200.0 mg/kg/injection, schedule: Q04DX003 (ip), vehicle: gum acacia 106 % of control | [12] 100 % of control and 94 % of control | [5] 97 % of control | dose: 400.0 mg/kg/injection, schedule: Q04DX002 (ip), vehicle: gum acacia 110 % of control | [13] 89 % of control

N#Cc1cc(Cl)cn1O
inactive: dose: 100.0 mg/kg/injection, schedule: Q04DX002 (ip), vehicle: other 91 % of control | dose: 200.0 mg/kg/injection, schedule: Q04DX002 (ip), vehicle: other 99 % of control

Nc1nc(N)c2cc(CNc3ccc(C(=O)NC(CCCC(=O)O)C(=O)O)cc3)ccc2n1 (stereo not given)
inactive: dose: 0.25 mg/kg/injection, schedule: Q01DX009 (ip), vehicle: saline 124 % of control | dose: 0.5 mg/kg/injection, schedule: Q01DX009 (ip), vehicle: saline 117 % of control | dose: 2.0 mg/kg/injection, schedule: Q01DX009 (ip), vehicle: saline 101 % of control | dose: 16.0 mg/kg/injection, schedule: Q04DX003 (ip), vehicle: saline 92 % of control

— PubChem BioAssay AID248 (DTP/NCI, 2004)
